The record followed here is the Kinase Knowledgebase extract (Sharma et al. 2016).

Structures are written as SMILES.

The target of this experiment is MAPK14 (human) (UniProt Q16539). As to the kind of experiment: Inhibtion of MAPK14 Kinase Activity.
MAPK14 (human), sequence (Q16539 whole entry, looked up): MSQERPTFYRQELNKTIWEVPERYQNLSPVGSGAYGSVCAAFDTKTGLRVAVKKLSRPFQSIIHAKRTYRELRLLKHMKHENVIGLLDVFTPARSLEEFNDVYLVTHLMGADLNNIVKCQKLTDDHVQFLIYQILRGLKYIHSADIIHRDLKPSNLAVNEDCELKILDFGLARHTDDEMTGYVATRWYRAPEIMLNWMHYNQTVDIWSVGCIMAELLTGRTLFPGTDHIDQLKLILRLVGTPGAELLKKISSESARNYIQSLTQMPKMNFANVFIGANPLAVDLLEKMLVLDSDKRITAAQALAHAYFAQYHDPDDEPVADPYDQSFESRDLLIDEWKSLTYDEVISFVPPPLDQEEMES

A word on the IC50: it is the concentration that inhibits the measured activity by half. With `CC(C)C[C@H](NCCCOc1ccc(-n2c(N)c(C(=O)c3ccc(F)cc3F)ccc2=O)cc1)C(=O)OC(C)(C)C`, the IC50 is less than 100 nM. `O=C(c1ccc(F)cc1)c1ccc(=O)[nH]c1Nc1c(F)cc(CN[C@@H](Cc2ccccc2)C(=O)OC2CCCC2)cc1F` had an IC50 of less than 100 nM.

The compound `Nc1c(C(=O)c2ccc(F)cc2F)ccc(=O)n1-c1c(F)cc(OCCCN[C@@H](C(=O)OC2CCCC2)c2ccccc2)cc1F` displayed an IC50 of less than 100 nM. With `CC(C)C[C@H](NCCCCCOc1cc(F)c(-n2c(N)c(C(=O)c3ccc(F)cc3F)ccc2=O)c(F)c1)C(=O)OC1CCCC1` the figure was less than 100 nM; with `Nc1c(C(=O)c2ccc(F)cc2F)ccc(=O)n1-c1ccc(OCCCN[C@H](C(=O)O)c2ccccc2)cc1`, less than 100 nM. In turn, `Nc1c(C(=O)c2ccc(F)cc2)ccc(=O)n1-c1ccc(OCCCN[C@H](C(=O)O)c2ccccc2)cc1` yielded an IC50 of less than 100 nM. As for `CC(C)C[C@H](NCc1ccc(-n2c(N)c(C(=O)c3ccc(F)cc3F)ccc2=O)cc1)C(=O)O`, the IC50 is less than 100 nM. The compound `CCOC(=O)[C@H](CC(C)C)NCCCOc1cc(F)c(-n2c(N)c(C(=O)c3ccc(F)cc3)ccc2=O)c(F)c1` gave an IC50 of less than 100 nM.
